# Data from US12110294B2, “CD73 compounds” (Gilead Sciences, Inc., priority 2020, dated 2024).
# Target: T1, CD73 activity in MDA-MB-231-GFP cells (Homo sapiens, UniProt P21589)
# T1 construct: endogenous in cells; host or cells: MDA-MB-231-GFP cells
# T1 sequence (P21589 27-549): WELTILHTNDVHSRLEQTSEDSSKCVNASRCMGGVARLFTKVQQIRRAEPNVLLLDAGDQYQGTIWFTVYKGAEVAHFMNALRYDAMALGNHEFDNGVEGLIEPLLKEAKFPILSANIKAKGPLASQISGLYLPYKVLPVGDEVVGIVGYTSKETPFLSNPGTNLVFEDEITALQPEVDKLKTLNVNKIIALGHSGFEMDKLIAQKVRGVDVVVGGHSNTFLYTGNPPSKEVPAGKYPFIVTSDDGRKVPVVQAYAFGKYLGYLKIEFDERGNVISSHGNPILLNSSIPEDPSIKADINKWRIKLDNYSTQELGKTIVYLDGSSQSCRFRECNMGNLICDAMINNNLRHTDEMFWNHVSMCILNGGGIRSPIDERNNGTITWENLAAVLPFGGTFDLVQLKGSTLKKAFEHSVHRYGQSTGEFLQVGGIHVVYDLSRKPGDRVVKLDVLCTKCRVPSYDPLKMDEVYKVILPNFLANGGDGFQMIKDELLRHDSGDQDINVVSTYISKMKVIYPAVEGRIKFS
# Assay: MDA-MB-231 Cell Based CD73 Activity Assay (DMEM)
# Conditions: 3000 cells per well, DMEM medium with 10% human plasma, overnight compound treatment, AMP 200 uM
row,Compound,EC50
1,"N#Cc1ccc([C@H]2C[C@@H]2c2cc(-c3c[nH]c(=O)[nH]c3=O)nn3ccnc23)c(F)c1 (racemic) [Example 407, 4-((2S,2S)-2-(6-(2,4-dioxo-1,2,3,4-tetrahydropyrimidin-5-yl)imidazo[1,2-b]pyridazin-8-yl)cyclopropyl)-3-fluorobenzonitrile]",14.7 nM
2,"N#Cc1cccc([C@H]2C[C@@H]2c2cc(-c3c[nH]c(=O)[nH]c3=O)nn3ccnc23)c1F (racemic) [Example 408, 3-((1S,2S)-2-(6-(2,4-dioxo-1,2,3,4-tetrahydropyrimidin-5-yl)imidazo[1,2-b]pyridazin-8-yl)cyclopropyl)-2-fluorobenzonitrile]",7.44 nM
3,"N#Cc1ccc([C@H]2C[C@@H]2c2cc(-c3c[nH]c(=O)[nH]c3=O)nn3ccnc23)cc1C(F)(F)F (racemic) [Example 411, 4-((1S,2S)-2-(6-(2,4-dioxo-1,2,3,4-tetrahydropyrimidin-5-yl)imidazo[1,2-b]pyridazin-8-yl)cyclopropyl)-2-(trifluoromethyl)benzonitrile]",42.6 nM
4,"N#Cc1cc([C@H]2C[C@@H]2c2cc(-c3c[nH]c(=O)[nH]c3=O)nn3ccnc23)ccc1C(F)(F)F (racemic) [Example 412, 5-((2S,2S)-2-(6-(2,4-dioxo-1,2,3,4-tetrahydropyrimidin-5-yl)imidazo[1,2-b]pyridazin-8-yl)cyclopropyl)-2-(trifluoromethyl)benzonitrile]",38.3 nM
5,"N#Cc1ccc([C@H]2C[C@@H]2c2cc(-c3c[nH]c(=O)[nH]c3=O)nn3ccnc23)cc1OC(F)(F)F (racemic) [Example 413, 4-((2S,2S)-2-(6-(2,4-dioxo-1,2,3,4-tetrahydropyrimidin-5-yl)imidazo[1,2-b]pyridazin-8-yl)cyclopropyl)-2-(trifluoromethoxy)benzonitrile]",34.6 nM
6,"N#Cc1cc([C@H]2C[C@@H]2c2cc(-c3c[nH]c(=O)[nH]c3=O)nn3ccnc23)ccc1OC(F)(F)F (racemic) [Example 414, 5-((2S,2S)-2-(6-(2,4-dioxo-1,2,3,4-tetrahydropyrimidin-5-yl)imidazo[1,2-b]pyridazin-8-yl)cyclopropyl)-2-(trifluoromethoxy)benzonitrile]",43.8 nM
7,"O=c1[nH]cc(-c2cc(N3CC(Oc4ccc(C(F)(F)F)cn4)C(F)(F)C3)c3ncnn3n2)c(=O)[nH]1 (racemic) [Example 432, 5-(8-(3,3-difluoro-4-((5-(trifluoromethyl)pyridin-2-yl)oxy)pyrrolidin-1-yl)-[1,2,4]triazolo[1,5-b]pyridazin-6-yl)pyrimidine-2,4(1H,3H)-dione]",2.58 nM
8,"O=c1[nH]cc(-c2cc(N3CCC(CC(F)(F)F)C3)c3nccn3n2)c(=O)[nH]1 (racemic) [Example 452, 5-(8-(3-(2,2,2-trifluoroethyl)pyrrolidin-1-yl)imidazo[1,2-b]pyridazin-6-yl)pyrimidine-2,4(1H,3H)-dione]",94.8 nM
9,"O=c1[nH]cc(-c2cc(N3CCC(CC(F)F)C3)c3nccn3n2)c(=O)[nH]1 (racemic) [Example 453, 5-(8-(3-(2,2-difluoroethyl)pyrrolidin-1-yl)imidazo[1,2-b]pyridazin-6-yl)pyrimidine-2,4(1H,3H)-dione]",112 nM
10,"O=c1[nH]cc(-c2cc([C@H]3C[C@@H]3c3nc4ccccc4[nH]3)c3nccn3n2)c(=O)[nH]1 (racemic) [Example 461, 5-(8-((1S,2S)-2-(1H-benzo[d]imidazol-2-yl)cyclopropyl)imidazo[1,2-b]pyridazin-6-yl)pyrimidine-2,4(1H,3H)-dione]",11.6 nM
11,"O=c1[nH]cc(-c2cc([C@H]3C[C@@H]3c3ccc(F)c(F)c3F)c3nccn3n2)c(=O)[nH]1 (racemic) [Example 464, 5-(8-((2S,2S)-2-(2,3,4-trifluorophenyl)cyclopropyl)imidazo[1,2-b]pyridazin-6-yl)pyrimidine-2,4(1H,3H)-dione]",16.2 nM
12,"N#Cc1ccc(F)c([C@H]2C[C@@H]2c2cc(-c3c[nH]c(=O)[nH]c3=O)nn3ccnc23)c1 (racemic) [Example 466, 3-((2S,2S)-2-(6-(2,4-dioxo-1,2,3,4-tetrahydropyrimidin-5-yl)imidazo[1,2-b]pyridazin-8-yl)cyclopropyl)-4-fluorobenzonitrile]",20 nM
13,"O=c1[nH]cc(-c2cc([C@H]3C[C@@H]3c3c(F)ccc(F)c3F)c3nccn3n2)c(=O)[nH]1 (racemic) [Example 468, 5-(8-((2S,2S)-2-(2,3,6-trifluorophenyl)cyclopropyl)imidazo[1,2-b]pyridazin-6-yl)pyrimidine-2,4(1H,3H)-dione]",13.3 nM
14,"O=c1[nH]cc(-c2cc([C@H]3C[C@@H]3c3cc4c(cn3)cnn4CC(F)(F)F)c3ncc(Cl)n3n2)c(=O)[nH]1 (racemic) [Example 471, 5-(3-chloro-8-((2S,2S)-2-(1-(2,2,2-trifluoroethyl)-1H-pyrazolo[4,3-c]pyridin-6-yl)cyclopropyl)imidazo[1,2-b]pyridazin-6-yl)pyrimidine-2,4(1H,3H)-dione]",0.24 nM
15,"CC1(C)C(=O)N(CC(F)(F)F)c2cc([C@H]3C[C@@H]3c3cc(-c4c[nH]c(=O)[nH]c4=O)nn4ccnc34)ncc21 (racemic) [Example 718, 5-[8-[(1S,2S)-2-[3,3-dimethyl-2-oxo-1-(2,2,2-trifluoroethyl)pyrrolo[3,2-c]pyridin-6-yl]cyclopropyl]imidazo[1,2-b]pyridazin-6-yl]-1H-pyrimidine-2,4-dione]",0.33 nM
16,"O=c1[nH]cc(-c2cc([C@H]3C[C@@H]3c3cc(OCC(F)(F)F)c4ncccc4c3)c3nccn3n2)c(=O)[nH]1 (racemic) [Example 732, 5-(8-((2S,2S)-2-(8-(2,2,2-trifluoroethoxy)quinolin-6-yl)cyclopropyl)imidazo[1,2-b]pyridazin-6-yl)pyrimidine-2,4(1H,3H)-dione]",2.52 nM
17,"O=C1N(CC2(F)CC2)c2cc([C@H]3C[C@@H]3c3cc(-c4c[nH]c(=O)[nH]c4=O)nn4c(F)cnc34)ccc2C12CC2 (racemic) [Example 735, 5-(3-fluoro-8-((2S,2S)-2-(1′-((1-fluorocyclopropyl)methyl)-2′-oxospiro[cyclopropane-1,3′-indolin]-6′-yl)cyclopropyl)imidazo[1,2-b]pyridazin-6-yl)pyrimidine-2,4(1H,3H)-dione]",0.38 nM
18,"O=C1N(CC(F)(F)F)c2cc([C@H]3C[C@@H]3c3cc(-c4c[nH]c(=O)[nH]c4=O)nn4ccnc34)c(F)cc2C12CC2 (racemic) [Example 748, 5-(8-((2S,2S)-2-(5′-fluoro-2′-oxo-1′-(2,2,2-trifluoroethyl)spiro[cyclopropane-1,3′-indolin]-6′-yl)cyclopropyl)imidazo[1,2-b]pyridazin-6-yl)pyrimidine-2,4(1H,3H)-dione]",1.76 nM
19,"O=C(c1ccc([C@H]2C[C@@H]2c2cc(-c3c[nH]c(=O)[nH]c3=O)nn3c(F)cnc23)cc1)N1CC(F)(F)C1 (single isomer, unassigned) [Example 313]",9.78 nM
20,"O=c1[nH]cc(-c2cc([C@H]3C[C@@H]3c3cnn(C(F)F)c3)c3ncc(F)n3n2)c(=O)[nH]1 (single isomer, unassigned) [Example 371]",17.9 nM
21,"O=c1[nH]cc(-c2cc([C@H]3C[C@@H]3c3ccc(OC(F)(F)F)cn3)c3nccn3n2)c(=O)[nH]1 (single isomer, unassigned) [Example 373]",9.61 nM
22,"O=C1N(CC(F)(F)F)c2cc([C@H]3C[C@@H]3c3cc(-c4c[nH]c(=O)[nH]c4=O)nn4ccnc34)ccc2C12CC2 (single isomer, unassigned) [Example 391]",0.1 nM
23,"O=C1N(CC(F)(F)F)c2cc([C@H]3C[C@@H]3c3cc(-c4c[nH]c(=O)[nH]c4=O)nn4c(Cl)cnc34)ccc2C12CC2 (single isomer, unassigned) [Example 740]",0.28 nM
24,"O=C1N(CC(F)(F)F)c2cc([C@H]3C[C@@H]3c3cc(-c4c[nH]c(=O)[nH]c4=O)nn4c(Cl)c(Cl)nc34)ccc2C12CC2 (single isomer, unassigned) [Example 741]",0.68 nM
25,"O=c1[nH]cc(-c2cc([C@H]3C[C@@H]3c3cc4c(cn3)cnn4CC(F)(F)F)c3ncc(F)n3n2)c(=O)[nH]1 [Example 611, 5-(3-fluoro-8-((2S,2S)-2-(1-(2,2,2-trifluoroethyl)-1H-pyrazolo[4,3-c]pyridin-6-yl)cyclopropyl)imidazo[1,2-b]pyridazin-6-yl)pyrimidine-2,4(1H,3H)-dione]",0.07 nM
26,"O=c1[nH]cc(-c2cc(N3C[C@H]4CC[C@@H]3C4)c3nccn3n2)c(=O)[nH]1 [Example 642, 5-(8-((1R,4S)-2-azabicyclo[2.2.1]heptan-2-yl)imidazo[1,2-b]pyridazin-6-yl)pyrimidine-2,4(1H,3H)-dione]",154 nM

# Target: T2, CD73 (Homo sapiens, UniProt P21589)
# T2 construct: purchased R&D system
# T2 sequence (P21589 27-549): T1 sequence (P21589 27-549)
# Assay: not given
# Format: biochemical
# Conditions: 1 mM NaH2PO4 in enzyme buffer, final AMP 15 uM, final CD73 0.3 nM
row,Compound,IC50
1,O=c1[nH]cc(-c2cc(N3CCC4(C3)CC4(F)F)c3nccn3n2)c(=O)[nH]1 (centres unmarked) [Example 192],6.41 nM
2,O=c1[nH]cc(-c2cc(N3CC(OCC(F)(F)F)C(F)(F)C3)c3nccn3n2)c(=O)[nH]1 (centres unmarked) [Example 203],3.03 nM
3,"COC(=O)[C@H]1[C@@H]2CN(c3cc(-c4c[nH]c(=O)[nH]c4=O)nn4ccnc34)C[C@@H]21 [Example 314, methyl (1R,5S,6r)-3-(6-(2,4-dioxo-1,2,3,4-tetrahydropyrimidin-5-yl)imidazo[1,2-b]pyridazin-8-yl)-3-azabicyclo[3.1.0]hexane-6-carboxylate]",> 250 nM
